One block for each molecule: values may come before it.
Experiments:
Type in all cases: cell-based, human
[1] = test system: Ca^2+ signals evoked by histamine, bradykinin or carbachol in hBASMCs; assay: GPCR-evoked Ca2+ signals (histamine, bradykinin or carbachol, stated together) in hBASMCs; conditions: HBSS; for whether the inhibitor substantially affected the Ca2+ signals evoked by histamine, bradykinin or carbachol: ryanodine 50 μM or trans Ned-19 1 μM, 5 min
Protocol: (§1) Two methods were used to measure [Ca^2+]i in populations of hBASMCs. For measurements using a FlexStation III plate-reader (Molecular Devices, Sunnyvale, CA, USA), hBASMCs were seeded into 96-well plates (10^4 cells per well). After about 4 days, when the cells were confluent, the medium was replaced with SMGM-2 without serum or growth factor supplements, and the cells were used after a further 24 h. […] Cells were washed with HEPES-buffered saline (HBS: 135 mM NaCl, 5.9 mM KCl, 1.2 mM MgCl2, 1.5 mM CaCl2, 11.6 mM HEPES, 11.5 mM D-glucose, pH 7.3), and loaded with fluo-4 by incubation with fluo-4-AM (2 μM) in HBS (100 μL per well) containing pluronic F127 (0.02%, v/v) and probenecid (2.5 mM). After 1 h at 20 °C, the medium was replaced with HBS (100 μL per well) containing probenecid (2.5 mM). After a further incubation at 20 °C for 1 h, the medium was replaced with HBS (60–80 μL per well) or nominally Ca^2+-free HBS, and the cells were used immediately for experiments at 20 °C. […] Drug additions (20 μL at 4 or 5 times the final concentration) were added automatically. Fluorescence from fluo-4 (excitation 485 nm, emission 525 nm) was recorded at 1.44-s intervals using Softmax Pro 5.4 (Molecular Devices). Fluorescence was calibrated to [Ca^2+]i from: [Ca^2+]i=KDCa×(F−Fmin/Fmax−F) where, KDCa is the equilibrium dissociation constant of fluo-4 for Ca^2+ (345 nM), F is the recorded fluorescence, and Fmin and Fmax are the fluorescence values recorded after addition of triton-X-100 (0.1%, v/v) with either BAPTA (10 mM, Fmin) or CaCl2 (10 mM, Fmax). […] Fmax was determined for each well at the end of an experiment, and the average value was used for each column of 8 wells. Fmin was determined from parallel wells on each plate.
(§2) For measurements of [Ca^2+]i using an FDSS 7000 FLIPR (Hamamatsu), hBASMCs were seeded into 384-well plates (8000 cells per well) in 20 μL of SMGM-2 containing 5% serum. […] The exact composition of this ‘no-wash’ indicator kit is not disclosed by the manufacturer, but it contains fluo-4-AM and components that reduce background fluorescence. […]

[2] = test system: histamine-evoked Ca^2+ signals in hBASMCs; assay: Histamine-evoked Ca2+ signals in populations of fluo-4-loaded hBASMCs; conditions: for effect on the sensitivity to histamine: trans Ned-19 1 μM or ryanodine 50 μM, 5 min, HBSS; for effect on histamine-evoked Ca2+ signals: pre-treatment: 8-Br-cGMP, IBMX 20 min, forskolin 10 μM, NKH477 10 μM, butaprost 10 μM, TCS2510 1 μM 5 min
Protocol: Two methods were used to measure [Ca^2+]i in populations of hBASMCs. For measurements using a FlexStation III plate-reader (Molecular Devices, Sunnyvale, CA, USA), hBASMCs were seeded into 96-well plates (10^4 cells per well). After about 4 days, when the cells were confluent, the medium was replaced with SMGM-2 without serum or growth factor supplements, and the cells were used after a further 24 h. This period in serum-free medium increased by about 2-fold the amplitude of the increases in [Ca^2+]i evoked by histamine (results not shown). Cells were washed with HEPES-buffered saline (HBS: 135 mM NaCl, 5.9 mM KCl, 1.2 mM MgCl2, 1.5 mM CaCl2, 11.6 mM HEPES, 11.5 mM D-glucose, pH 7.3), and loaded with fluo-4 by incubation with fluo-4-AM (2 μM) in HBS (100 μL per well) containing pluronic F127 (0.02%, v/v) and probenecid (2.5 mM). After 1 h at 20 °C, the medium was replaced with HBS (100 μL per well) containing probenecid (2.5 mM). After a further incubation at 20 °C for 1 h, the medium was replaced with HBS (60–80 μL per well) or nominally Ca^2+-free HBS, and the cells were used immediately for experiments at 20 °C. In some experiments, BAPTA (2.5 mM) was added to HBS during the recording; this reduced the free [Ca^2+] of the HBS to ∼120 nM without affecting the pH. Drug additions (20 μL at 4 or 5 times the final concentration) were added automatically. Fluorescence from fluo-4 (excitation 485 nm, emission 525 nm) was recorded at 1.44-s intervals using Softmax Pro 5.4 (Molecular Devices). Fluorescence was calibrated to [Ca^2+]i from: [Ca^2+]i=KDCa×(F−Fmin/Fmax−F) where, KDCa is the equilibrium dissociation constant of fluo-4 for Ca^2+ (345 nM), F is the recorded fluorescence, and Fmin and Fmax are the fluorescence values recorded after addition of triton-X-100 (0.1%, v/v) with either BAPTA (10 mM, Fmin) or CaCl2 (10 mM, Fmax). Although treatment with triton-X-100 releases fluo-4 from cells into the medium, the fluo-4 fluorescence is captured with the same efficiency whether it is trapped within cells or dispersed within the small volume of the wells (unpublished observations). Fmax was determined for each well at the end of an experiment, and the average value was used for each column of 8 wells. Fmin was determined from parallel wells on each plate.
For measurements of [Ca^2+]i using an FDSS 7000 FLIPR (Hamamatsu), hBASMCs were seeded into 384-well plates (8000 cells per well) in 20 μL of SMGM-2 containing 5% serum. After 24 h, the medium was replaced with 15 μL of serum-free SMGM-2, and after a further 6 h the cells were loaded with Ca^2+ indicator by addition of FLIPR calcium 4 assay kit (Molecular Devices) supplemented with probenecid (2.5 mM). The exact composition of this ‘no-wash’ indicator kit is not disclosed by the manufacturer, but it contains fluo-4-AM and components that reduce background fluorescence. The manufacture’s stock solution was diluted 10-fold into HBSS containing BSA (0.1%, w/v) and HEPES (20 mM); 5 μL of this solution was then added to each well (containing 15 μL of serum-free SMGM-2). After 2 h at 37 °C in humidified air containing 5% CO2, the plate was used for experiments at 20 °C. Most additions (5 μL) were prepared in HBSS supplemented with HEPES (20 mM) and BSA (0.1%, w/v). For more prolonged incubations, drugs were diluted in the initial loading medium (to avoid changes in dye-loading during the ‘no wash’ protocol). Fluorescence signals (excitation at 480 nm, emission at 540 nm) were calibrated to [Ca^2+]i after measurement of Fmin and Fmax uniquely for each well, using a KDCa = 345 nM.
All concentration-effect relationships were determined by addition of different drug concentrations to individual wells in the same multi-well plate, rather than by sequential additions to the same well. […]

[3] = test system: intracellular cAMP in hBASMCs; assay: Intracellular cAMP in hBASMCs by mass spectrometry; conditions: IBMX 20 min; MS
Protocol: These methods were modified from. Confluent cultures of hBASMCs in 48-well plates were serum-deprived (6–24 h) and the medium was then replaced with HBSS (300 μL) containing HEPES (5 mM) and BSA (0.1%, w/v). Cells were stimulated at 20 °C, and reactions were terminated by aspiration of the medium and addition of acetonitrile (170 μL) containing dibutyryl cAMP (0.5 μM, to provide an internal standard). The plates were centrifuged (1500 xg, 15 min, 4 °C), supernatants (158 μL) were transferred to a 96-well, glass-coated plate (Thermo Scientific), and aqueous NH4HCO3 (pH 9.4, 93 μL) was added to each sample. After mixing and centrifugation (1500 xg, 15 min, 4 °C), samples were stored at 4 °C before analysis. Samples were analyzed by liquid chromatography tandem mass spectrometry (LC–MS/MS) using a Waters Acquity UPLC and a Sciex 5500 mass spectrometer equipped with an electrospray ionization source. ATP, ADP, AMP and cAMP were analyzed using a ZIC-pHILIC polymeric column (5-μm particle size, […]) maintained at 35 °C. Calibration standards were prepared in the lysis medium containing the internal standard, dibutyryl cAMP (0.5 μM). […] Samples were detected using multiple reaction monitoring in negative ion mode using the following parent-to-daughter mass transitions: cAMP m/z 327.9 → 133.9 (DP −100 V, CE −33 eV), AMP m/z 345.9 → 134.0 (DP −100 V, CE −50 eV), ADP m/z 426.0 → 134.0 (DP −100 V, CE −30 eV), ATP m/z 505.9 → 408.0 (DP −100 V, CE −35 eV), and internal standard dibutyryl cAMP m/z 468.1 → 175.0 (DP −100 V, CE −35 eV). Concentration-effect relationships were fitted to logistic equations for each experiment using GraphPad Prism (version 5, GraphPad Software, La Jolla, CA, USA), from which half-maximally effective drug concentrations (EC50), maximal responses, and Hill slopes were determined. For statistical analyses, maximal responses, Hill slopes and pEC50 (-logEC50) or pIC50 (-log of the half-maximal inhibitory concentration, IC50) values determined for individual experiments were pooled for statistical analysis. […]

[4] = test system: carbachol-evoked Ca^2+ signals in hBASMCs; assay: Carbachol-evoked Ca2+ signals in populations of fluo-4-loaded hBASMCs
Protocol: as §1, §2

[5] = test system: bradykinin-evoked Ca^2+ signals in hBASMCs; assay: Bradykinin-evoked Ca2+ signals in populations of fluo-4-loaded hBASMCs
Protocol: as §1, §2

[6] = test system: intracellular Ca^2+ stores of hBASMCs; assay: Ca2+ content of intracellular stores, by ionomycin in Ca2+-free HBS; conditions: isoproterenol, forskolin 10 μM, 5 min, 2-APB 5 min, higher concentrations needed than for inhibition of GPCR-evoked signals
L-type Ca^2+ channels = assay: Depolarization (K+)-evoked increase in [Ca2+]i in single fura-2-loaded hBASMCs; conditions: nimodipine 10 μM, 5 min; extracellular Na+ replaced with K+ 140 mM; all 44 cells, mean ± SD, single experiment; 50 ± 11 nM in absence
[7] = test system: LPA-evoked Ca^2+ signals in hBASMCs; assay: LPA-evoked Ca2+ signals in populations of fluo-4-loaded hBASMCs; conditions: PTX 100 ng·mL^−1, 24 h
Protocol: Two methods were used to measure [Ca^2+]i in populations of hBASMCs. For measurements using a FlexStation III plate-reader (Molecular Devices, Sunnyvale, CA, USA), hBASMCs were seeded into 96-well plates (10^4 cells per well). After about 4 days, when the cells were confluent, the medium was replaced with SMGM-2 without serum or growth factor supplements, and the cells were used after a further 24 h. […] Cells were washed with HEPES-buffered saline (HBS: 135 mM NaCl, 5.9 mM KCl, 1.2 mM MgCl2, 1.5 mM CaCl2, 11.6 mM HEPES, 11.5 mM D-glucose, pH 7.3), and loaded with fluo-4 by incubation with fluo-4-AM (2 μM) in HBS (100 μL per well) containing pluronic F127 (0.02%, v/v) and probenecid (2.5 mM). […] Fluorescence from fluo-4 (excitation 485 nm, emission 525 nm) was recorded at 1.44-s intervals using Softmax Pro 5.4 (Molecular Devices). Fluorescence was calibrated to [Ca^2+]i from: [Ca^2+]i=KDCa×(F−Fmin/Fmax−F) where, KDCa is the equilibrium dissociation constant of fluo-4 for Ca^2+ (345 nM), F is the recorded fluorescence, and Fmin and Fmax are the fluorescence values recorded after addition of triton-X-100 (0.1%, v/v) with either BAPTA (10 mM, Fmin) or CaCl2 (10 mM, Fmax). […] Fmax was determined for each well at the end of an experiment, and the average value was used for each column of 8 wells. Fmin was determined from parallel wells on each plate. […]

Molecule: COc1ccc([C@H]2N[C@H](C(=O)O)Cc3c2[nH]c2ccccc32)cc1CN1CCN(c2ccccc2F)CC1 (relative stereo) [trans Ned-19, trans-Ned-19]
whether the inhibitor substantially affected the Ca2+ signals evoked by histamine, bradykinin or carbachol [1]: Neither
effect on the sensitivity to histamine [2]: slightly reduced

Molecule: CC(C)Cn1c(=O)n(C)c(=O)c2[nH]cnc21 [IBMX, 3-isobutyl-1-methylxanthine]
effect on intracellular cAMP [3]: an accumulation of intracellular cAMP
effect on histamine-evoked Ca2+ signals [2]: an inhibition of histamine-evoked Ca^2+ signals

IC50 ([4]; Homo sapiens, carbachol 10 μM, pre-incubation 30 min, n = 3, read-out: pIC50 for inhibition of the Ca2+ signals evoked by carbachol (converted)): 39.8 µM
IC50 ([2]; Homo sapiens, histamine 10 μM, pre-incubation 30 min, n = 3, read-out: pIC50 for inhibition of the Ca2+ signals evoked by histamine (converted)): 22.9 µM
IC50 ([5]; Homo sapiens, bradykinin 1 nM, pre-incubation 30 min, n = 3, read-out: pIC50 for inhibition of the Ca2+ signals evoked by bradykinin (converted)): 33.9 µM
Molecule: CCCCCCCCCCCCCCCCCCOCC(COP(=O)([O-])OCC[N+](C)(C)C)OC (centres unmarked) [edelfosine]

Molecule: C=C[C@@]1(C)CC(=O)[C@]2(O)[C@@]3(C)[C@@H](O)CCC(C)(C)[C@@H]3[C@H](O)[C@H](OC(C)=O)[C@@]2(C)O1 [forskolin]
effect on the Ca2+ content of the intracellular stores [6]: Neither isoproterenol nor forskolin (10 μM, 5 min) affected
effect on histamine-evoked Ca2+ signals [2]: mimicked the effect of isoproterenol

Molecule: COCCOC(=O)C1=C(C)NC(C)=C(C(=O)OC(C)C)C1c1cccc([N+](=O)[O-])c1 (centres unmarked) [nimodipine]
effect on the increases in [Ca2+]i evoked by histamine, bradykinin and carbachol ([1]; added 5 min before stimulus, nimodipine 10 μM, 2-APB indicated concentrations): unaffected
peak increase in [Ca2+]i on depolarization in presence of inhibitor (L-type Ca^2+ channels): 20 ± 14 nM

Molecule: CC(C)[C@@]1(O)[C@@H](OC(=O)c2ccc[nH]2)[C@@]2(O)[C@@]3(C)C[C@]4(O)O[C@@]5([C@H](O)[C@@H](C)CC[C@]35O)[C@@]2(O)[C@@]14C [ryanodine]
whether the inhibitor substantially affected the Ca2+ signals evoked by histamine, bradykinin or carbachol [1]: Neither
effect on the sensitivity to histamine [2]: slightly reduced

Molecule: Pertussis toxin [PTX]
effect of pre-treatment on maximal amplitude of and sensitivity of the Ca2+ signals evoked by carbachol ([4]; PTX 100 ng·mL^−1, 24 h): significantly reduced
effect of pre-treatment on the Ca2+ signals evoked by histamine ([2]; PTX 100 ng·mL^−1, 24 h): had no effect
effect of pre-treatment on the Ca2+ signals evoked by bradykinin ([5]; PTX 100 ng·mL^−1, 24 h): had no effect
effect of pre-treatment on maximal amplitude of and sensitivity of the Ca2+ signals evoked by LPA [7]: significantly reduced
